{
  "source": "paper PMC5645531",
  "about": "“Probing the Single Key Amino Acid Responsible for the Novel Catalytic Function of ent-Kaurene Oxidase Supported by NADPH-Cytochrome P450 Reductases in Tripterygium wilfordii” (Frontiers in Plant Science, 2017)",
  "target": "T1, TwKO (Tripterygium wilfordii, UniProt A0A2S0H3R9)",
  "T1 construct": "full-length ORF co-expressed from pESC-Leu with a TwCPR (all four tested, TwCPR3 best) in Saccharomyces cerevisiae BY-T20; with NADPH--cytochrome P450 reductase 3",
  "T1 sequence (A0A2S0H3R9 1-509)": "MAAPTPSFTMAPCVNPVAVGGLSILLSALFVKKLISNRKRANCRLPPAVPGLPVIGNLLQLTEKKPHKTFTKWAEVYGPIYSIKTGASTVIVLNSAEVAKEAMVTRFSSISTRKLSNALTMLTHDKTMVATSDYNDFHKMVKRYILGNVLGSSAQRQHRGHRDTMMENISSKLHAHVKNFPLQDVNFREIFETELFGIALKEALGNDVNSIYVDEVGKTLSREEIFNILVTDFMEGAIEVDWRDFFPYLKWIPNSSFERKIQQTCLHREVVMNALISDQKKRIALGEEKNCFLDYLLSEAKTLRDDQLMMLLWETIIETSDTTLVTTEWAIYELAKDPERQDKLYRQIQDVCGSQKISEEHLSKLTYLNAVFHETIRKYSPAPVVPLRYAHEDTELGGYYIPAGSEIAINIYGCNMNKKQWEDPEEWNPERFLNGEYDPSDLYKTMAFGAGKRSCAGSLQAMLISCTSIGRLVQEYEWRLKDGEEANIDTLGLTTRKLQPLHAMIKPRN",
  "T1 sequence (A0A808MGE5 1-690 partner)": "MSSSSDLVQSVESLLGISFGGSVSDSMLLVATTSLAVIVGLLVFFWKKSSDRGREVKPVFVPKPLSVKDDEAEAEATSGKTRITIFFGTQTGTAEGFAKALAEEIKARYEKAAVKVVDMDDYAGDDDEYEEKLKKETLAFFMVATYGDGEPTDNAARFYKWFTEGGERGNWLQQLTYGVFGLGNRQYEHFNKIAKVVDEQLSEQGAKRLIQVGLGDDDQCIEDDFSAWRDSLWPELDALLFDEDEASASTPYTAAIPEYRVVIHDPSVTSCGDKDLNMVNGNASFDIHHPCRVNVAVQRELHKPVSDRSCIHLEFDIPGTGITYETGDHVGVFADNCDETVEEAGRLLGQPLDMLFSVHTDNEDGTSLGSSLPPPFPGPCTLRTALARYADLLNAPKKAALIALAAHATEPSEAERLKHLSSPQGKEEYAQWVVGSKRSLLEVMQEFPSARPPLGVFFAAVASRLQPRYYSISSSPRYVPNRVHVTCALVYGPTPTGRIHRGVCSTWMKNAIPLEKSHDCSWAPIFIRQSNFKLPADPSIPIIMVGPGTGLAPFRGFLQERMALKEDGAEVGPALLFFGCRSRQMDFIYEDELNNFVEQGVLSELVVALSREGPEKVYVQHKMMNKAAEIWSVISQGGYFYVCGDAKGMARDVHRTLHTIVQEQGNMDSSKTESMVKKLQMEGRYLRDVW",
  "assay": "GC-MS of methylated yeast culture extracts",
  "assay_type": "cell-based",
  "settings": "co-expressed TwCPR; substrate made in vivo by TwCPS3/TwKSL2:A608M; product ent-kaurenoic acid; 30 °C",
  "data": [
    {"smiles": "C=C1C[C@@]23CC[C@@H]4C(C)(C)CCC[C@@]4(C)[C@@H]2CC[C@@H]1C3", "note": "[ent-kaurene]", "values": [
      {"measurement": "GC-MS of methylated yeast culture extracts", "result": "three-stage oxidation of ent-kaurene to ent-kaurenoic acid"}
    ]}
  ]
}
